From patent US11173145B2, “Compounds useful as inhibitors of indoleamine 2,3-dioxygenase and/or tryptophan dioxygenase” (Board of Regents, The University of Texas System, priority 2017, dated 2021)

Molecular target: T1, IDO1 (Homo sapiens, UniProt P14902)
T1 construct: endogenous in cells; host or cells: HeLa cells (ATCC), IFNgamma-induced
Test: IDO1 cell-based assay (HeLa cells, IFNgamma-induced, N-formylkynurenine/L-tryptophan by RFMS)
Conditions: 10 ng/mL IFNgamma, 24 hours
How it was run: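 N-formylkynurenine and tryptophan peak areas in media measured by RFMS (C18, isocratic, d-Trp standard), giving IC50 values by regression. Source: HeLa cells incubated 24 h with IFNgamma (10 ng/mL) plus test compound at 0.5% DMSO; parallel CellTiter-Glo viability read.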

T1 sequence (P14902 whole entry): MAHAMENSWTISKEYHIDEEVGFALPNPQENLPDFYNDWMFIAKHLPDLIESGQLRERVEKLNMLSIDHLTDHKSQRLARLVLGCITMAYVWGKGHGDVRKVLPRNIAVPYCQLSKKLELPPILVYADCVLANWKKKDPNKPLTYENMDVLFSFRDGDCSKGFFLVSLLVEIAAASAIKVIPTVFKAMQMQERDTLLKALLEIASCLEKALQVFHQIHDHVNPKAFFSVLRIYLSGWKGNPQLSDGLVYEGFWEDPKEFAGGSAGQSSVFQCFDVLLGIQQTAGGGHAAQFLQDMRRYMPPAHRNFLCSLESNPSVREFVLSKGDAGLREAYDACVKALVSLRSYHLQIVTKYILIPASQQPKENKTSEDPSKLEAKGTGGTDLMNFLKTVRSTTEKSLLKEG

CCC(NC(=O)c1ccc(Cl)cc1)[C@H]1[C@@H]2C[C@@H](N3C(=O)C(F)(F)c4ccccc43)C[C@@H]21 (stereo partly drawn) [Compound 119, 4-chloro-N-(1-((1R,3s,5S,6r)-3-(3,3-difluoro-2-oxoindolin-1-yl)bicyclo[3.1.0]hexan-6-yl)propyl)benzamide]
IC50: < 200 nM

CC(NC(=O)c1ccc(C#N)cc1)[C@H]1[C@@H]2C[C@@H](n3cnc4cc(F)ccc4c3=O)C[C@@H]21 (stereo partly drawn) [Compound 120, 4-cyano-N-(1-((1R,3s,5S,6r)-3-(7-fluoro-4-oxoquinazolin-3(4H)-yl)bicyclo[3.1.0]hexan-6-yl)ethyl)benzamide]
IC50: < 200 nM

CCC(NC(=O)c1ccc(Cl)cc1)[C@H]1[C@@H]2C[C@@H](N3C(=O)Cc4cc(F)ccc43)C[C@@H]21 (stereo partly drawn) [Compound 121, 4-chloro-N-(1-((1R,3s,5S,6r)-3-(5-fluoro-2-oxoindolin-1-yl)bicyclo[3.1.0]hexan-6-yl)propyl)benzamide]
IC50: < 200 nM

CCC(NC(=O)c1ccc(Cl)cc1)[C@H]1[C@@H]2C[C@@H](N3C(=O)CC(C)(C)C3=O)C[C@@H]21 (stereo partly drawn) [Compound 122, 4-chloro-N-(1-((1R,3s,5S,6r)-3-(3,3-dimethyl-2,5-dioxopyrrolidin-1-yl)bicyclo[3.1.0]hexan-6-yl)propyl)benzamide]
IC50: 2000 to 5000 nM

CCC(NC(=O)c1ccc(Cl)cc1)[C@H]1[C@@H]2C[C@@H](Nc3ncnc4ccc(F)cc34)C[C@@H]21 (stereo partly drawn) [Compound 123, 4-chloro-N-(1-((1R,3s,5S,6r)-3-((6-fluoroquinazolin-4-yl)amino)bicyclo[3.1.0]hexan-6-yl)propyl)benzamide]
IC50: < 200 nM

COc1ccc(C(=O)NC(C)[C@H]2[C@@H]3C[C@@H](Oc4ncnc5cc(F)ccc45)C[C@@H]32)cn1 (stereo partly drawn) [Compound 124, N-(1-((1R,3s,5S,6r)-3-((7-fluoroquinazolin-4-yl)oxy)bicyclo[3.1.0]hexan-6-yl)ethyl)-6-methoxynicotinamide]
IC50: < 200 nM

CCC(NC(=O)c1ccc(Cl)cc1)[C@H]1[C@@H]2C[C@H](Oc3ccc4nccc(Cl)c4c3)C[C@@H]21 (stereo partly drawn) [Compound 127, 4-chloro-N-(1-((1R,3r,5S,6r)-3-((4-chloroquinolin-6-yl)oxy)bicyclo[3.1.0]hexan-6-yl)propyl)benzamide]
IC50: < 200 nM

COc1ccc(C(=O)NC(C)[C@H]2[C@@H]3C[C@@H](O)C[C@@H]32)cn1 (stereo partly drawn) [Compound 128, N-(1-((1R,3s,5S,6r)-3-hydroxybicyclo[3.1.0]hexan-6-yl)ethyl)-6-methoxynicotinamide]
IC50: > 5000 nM

CC(NC(=O)c1ccc(C#N)cc1)[C@H]1[C@@H]2C[C@@H](n3cc(C4CC4)nn3)C[C@@H]21 (stereo partly drawn) [Compound 129, 4-cyano-N-(1-((1R,3s,5S,6r)-3-(4-cyclopropyl-1H-1,2,3-triazol-1-yl)bicyclo[3.1.0]hexan-6-yl)ethyl)benzamide]
IC50: 200 to 2000 nM

CCOC(=O)CC(NC(=O)c1ccc(Cl)cc1)[C@H]1[C@@H]2C[C@@H](Oc3ncnc4ccc(F)cc34)C[C@@H]21 (stereo partly drawn) [Compound 134, ethyl 3-(4-chlorobenzamido)-3-((1R,3s,5S,6r)-3-((6-fluoroquinazolin-4-yl)oxy)bicyclo[3.1.0]hexan-6-yl)propanoate]
IC50: < 200 nM

CC(NC(=O)c1ccc(C#N)cc1)[C@H]1[C@@H]2C[C@@H](Oc3cnnc4ccccc34)C[C@@H]21 (stereo partly drawn) [Compound 135, N-(1-((1R,3s,5S,6r)-3-(cinnolin-4-yloxy)bicyclo[3.1.0]hexan-6-yl)ethyl)-4-cyanobenzamide]
IC50: 200 to 2000 nM

CC(NC(=O)c1ccc(C#N)cc1)[C@H]1[C@@H]2C[C@@H](n3ncc(=O)c4ccccc43)C[C@@H]21 (stereo partly drawn) [Compound 136, 4-cyano-N-(1-((1R,3s,5S,6r)-3-(4-oxocinnolin-1(4H)-yl)bicyclo[3.1.0]hexan-6-yl)ethyl)benzamide]
IC50: 200 to 2000 nM

O=C(NC(CCO)[C@H]1[C@@H]2C[C@@H](Oc3ncnc4ccc(F)cc34)C[C@@H]21)c1ccc(Cl)cc1 (stereo partly drawn) [Compound 137, 4-chloro-N-(1-((1R,3s, 5S, 6r)-3-((6-fluoroquinazolin-4-yl)oxy)bicyclo[3.1.0]hexan-6-yl)-3-hydroxypropyl)benzamide]
IC50: 2000 to 5000 nM

CCC(NC(=O)c1ccc(Cl)cc1)[C@H]1[C@@H]2C[C@@H](Oc3cnnc4ccccc34)C[C@@H]21 (stereo partly drawn) [Compound 138, 4-chloro-N-(1-((1R,3r,5S,6r)-3-(cinnolin-4-yloxy)bicyclo[3.1.0]hexan-6-yl)propyl)benzamide]
IC50: < 200 nM

O=C(NC(CCO)[C@H]1[C@@H]2C[C@@H](Oc3cnnc4ccccc34)C[C@@H]21)c1ccc(Cl)cc1 (stereo partly drawn) [Compound 139, 4-chloro-N-(1-((1R,3s,5S,6r)-3-(cinnolin-4-yloxy)bicyclo[3.1.0]hexan-6-yl)-3-hydroxypropyl)benzamide]
IC50: 200 to 2000 nM

O=C(NC(CCO)[C@H]1[C@@H]2C[C@@H](n3ncc(=O)c4ccccc43)C[C@@H]21)c1ccc(Cl)cc1 (stereo partly drawn) [Compound 140, 4-chloro-N-(3-hydroxy-1-((1R,3s, 5S, 6r)-3-(4-oxocinnolin-1(4H)-yl)bicyclo[3.1.0]hexan-6-yl)propyl)benzamide]
IC50: < 200 nM

CCC(NC(=O)c1ccc(Cl)cc1)[C@H]1[C@@H]2C[C@@H](n3cc(C(C)(C)O)nn3)C[C@@H]21 (stereo partly drawn) [Compound 141, 4-chloro-N-((R)-1-((1R,3S,5S,6r)-3-(4-(2-hydroxypropan-2-yl)-1H-1,2,3-triazol-1-yl)bicyclo[3.1.0]hexan-6-yl)propyl)benzamide]
IC50: 200 to 2000 nM

CC[C@@H](NC(=O)c1ccc(Cl)cc1)[C@H]1[C@@H]2C[C@@H](n3cc(C(C)(C)O)nn3)C[C@@H]21 [Compound 142, 4-chloro-N-((S)-1-((1R,3R,5S,6r)-3-(4-(2-hydroxypropan-2-yl)-1H-1,2,3-triazol-1-yl)bicyclo[3.1.0]hexan-6-yl)propyl)benzamide]
IC50: > 5000 nM

CC(NC(=O)c1ccc(C#N)cc1)[C@H]1[C@@H]2C[C@@H](NC(=O)c3ccccn3)C[C@@H]21 (stereo partly drawn) [Compound 143, N-((1R,3s,5S,6r)-6-(1-(4-cyanobenzamido)ethyl)bicyclo[3.1.0]hexan-3-yl)picolinamide]
IC50: < 200 nM

CCC(NC(=O)c1ccc(Cl)cc1)[C@H]1[C@@H]2C[C@@H](n3cc(CO)nn3)C[C@@H]21 (stereo partly drawn) [Compound 146, 4-chloro-N-(1-((1R,3s,5S,6r)-3-(4-(hydroxymethyl)-1H-1,2,3-triazol-1-yl)bicyclo[3.1.0]hexan-6-yl)propyl)benzamide]
IC50: 200 to 2000 nM

C=C(C)c1cn([C@@H]2C[C@@H]3[C@H](C2)[C@H]3C(CC)NC(=O)c2ccc(Cl)cc2)nn1 (stereo partly drawn) [Compound 147, 4-chloro-N-(1-((1R,3s,5S,6r)-3-(4-(prop-1-en-2-yl)-1H-1,2,3-triazol-1-yl)bicyclo[3.1.0]hexan-6-yl)propyl)benzamide]
IC50: < 200 nM

O=C(O)CC(NC(=O)c1ccc(Cl)cc1)[C@H]1[C@@H]2C[C@@H](Oc3ncnc4ccc(F)cc34)C[C@@H]21 (stereo partly drawn) [Compound 148, 3-(4-chlorobenzamido)-3-((1R,3s,5S,6r)-3-((6-fluoroquinazolin-4-yl)oxy)bicyclo[3.1.0]hexan-6-yl)propanoic acid]
IC50: > 5000 nM

CCC(NC(=O)c1ccc(Cl)cc1)[C@H]1[C@@H]2C[C@@H](NC(=O)c3ccncn3)C[C@@H]21 (stereo partly drawn) [Compound 149, N-((1R,3s,5S,6r)-6-(1-(4-chlorobenzamido)propyl)bicyclo[3.1.0]hexan-3-yl)pyrimidine-4-carboxamide]
IC50: < 200 nM

CCC(NC(=O)c1ccc(Cl)cc1)[C@H]1[C@@H]2C[C@@H](NC(=O)c3cccnn3)C[C@@H]21 (stereo partly drawn) [Compound 151, N-((1R,3s,5S,6r)-6-(1-(4-chlorobenzamido)propyl)bicyclo[3.1.0]hexan-3-yl)pyridazine-3-carboxamide]
IC50: < 200 nM

CCC(NC(=O)c1ccc(Cl)cc1)[C@H]1[C@@H]2C[C@@H](NC(=O)c3cnccn3)C[C@@H]21 (stereo partly drawn) [Compound 152, N-((1R,3s,5S,6r)-6-(1-(4-chlorobenzamido)propyl)bicyclo[3.1.0]hexan-3-yl)pyrazine-2-carboxamide]
IC50: < 200 nM

CCC(NC(=O)c1ccc(Cl)cc1)[C@H]1[C@@H]2C[C@@H](n3nncc3C(C)(C)O)C[C@@H]21 (stereo partly drawn) [Compound 154, 4-chloro-N-(1-((1R,3s,5S,6r)-3-(5-(2-hydroxypropan-2-yl)-1H-1,2,3-triazol-1-yl)bicyclo[3.1.0]hexan-6-yl)propyl)benzamide]
IC50: < 200 nM

CCC(NC(=O)c1ccc(Cl)cc1)[C@H]1[C@@H]2C[C@@H](n3nncc3CO)C[C@@H]21 (stereo partly drawn) [Compound 155, 4-chloro-N-(1-((1R,3s,5S,6r)-3-(5-(hydroxymethyl)-1H-1,2,3-triazol-1-yl)bicyclo[3.1.0]hexan-6-yl)propyl)benzamide]
IC50: 200 to 2000 nM

CCC(NC(=O)c1ccc(Cl)cc1)[C@H]1[C@@H]2C[C@@H](NC(=O)N3CCNCC3)C[C@@H]21 (stereo partly drawn) [Compound 156, N-((1R,3s,5S,6r)-6-(1-(4-chlorobenzamido)propyl)bicyclo[3.1.0]hexan-3-yl)piperazine-1-carboxamide]
IC50: > 5000 nM

CCC(NC(=O)c1ccc(Cl)cc1)[C@H]1[C@@H]2C[C@@H](NC(=O)N3CCOCC3)C[C@@H]21 (stereo partly drawn) [Compound 157, N-((1R,3s,5S,6r)-6-(1-(4-chlorobenzamido)propyl)bicyclo[3.1.0]hexan-3-yl)morpholine-4-carboxamide]
IC50: 200 to 2000 nM

CCC(NC(=O)c1ccc(Cl)cc1)[C@H]1[C@@H]2C[C@@H](NS(C)(=O)=O)C[C@@H]21 (stereo partly drawn) [Compound 159, 4-chloro-N-(1-((1R,3s,5S,6r)-3-(methylsulfonamido)bicyclo[3.1.0]hexan-6-yl)propyl)benzamide]
IC50: 200 to 2000 nM

CCC(NC(=O)c1ccc(Cl)cc1)[C@H]1[C@@H]2C[C@@H](NS(=O)(=O)C3(C)CC3)C[C@@H]21 (stereo partly drawn) [Compound 160, 4-chloro-N-(1-((1R,3s,5S,6r)-3-((1-methylcyclopropane)-1-sulfonamido)bicyclo[3.1.0]hexan-6-yl)propyl)benzamide]
IC50: 200 to 2000 nM
